Tested on: K86415-001-R-J1-PDC complex spheroids, viability
Assay: Anticancer human tumor K86415-001-R-J1-PDC patient-derived lung adenocarcinoma cell line growth inhibition [RAS]
Conditions: for viability, T/C: stronger effect = lower value
Summary of the method: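 Agents were tested in combination matrices in half-log decrements from a top concentration at or near clinical Cmax (10 microM if undetermined). Targets were multi-cell spheroids of tumour lines plus HUVEC and MSC stromal cells.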

[1] = curve of first compound, second compound 0.000949 µM
[2] = curve of first compound, second compound 0.003 µM
[3] = curve of first compound, second compound 0.00949 µM
[4] = curve of first compound, second compound 0.03 µM
[5] = curve of first compound, second compound 0.0949 µM
[6] = curve of first compound, second compound 0.3 µM
[7] = second compound 0.000949 µM, first compound 0.00316 µM
[8] = second compound 0.000949 µM, first compound 0.01 µM
[9] = second compound 0.000949 µM, first compound 0.0316 µM
[10] = second compound 0.000949 µM, first compound 0.1 µM
[11] = second compound 0.000949 µM, first compound 0.316 µM
[12] = second compound 0.000949 µM, first compound 1 µM
[13] = second compound 0.003 µM, first compound 0.00316 µM
[14] = second compound 0.003 µM, first compound 0.01 µM
[15] = second compound 0.003 µM, first compound 0.0316 µM
[16] = second compound 0.003 µM, first compound 0.1 µM
[17] = second compound 0.003 µM, first compound 0.316 µM
[18] = second compound 0.003 µM, first compound 1 µM
[19] = second compound 0.00949 µM, first compound 0.00316 µM
[20] = second compound 0.00949 µM, first compound 0.01 µM
[21] = second compound 0.00949 µM, first compound 0.0316 µM
[22] = second compound 0.00949 µM, first compound 0.1 µM
[23] = second compound 0.00949 µM, first compound 0.316 µM
[24] = second compound 0.00949 µM, first compound 1 µM
[25] = second compound 0.03 µM, first compound 0.00316 µM
[26] = second compound 0.03 µM, first compound 0.01 µM
[27] = second compound 0.03 µM, first compound 0.0316 µM
[28] = second compound 0.03 µM, first compound 0.1 µM
[29] = second compound 0.03 µM, first compound 0.316 µM
[30] = second compound 0.03 µM, first compound 1 µM
[31] = second compound 0.0949 µM, first compound 0.00316 µM
[32] = second compound 0.0949 µM, first compound 0.01 µM
[33] = second compound 0.0949 µM, first compound 0.0316 µM
[34] = second compound 0.0949 µM, first compound 0.1 µM
[35] = second compound 0.0949 µM, first compound 0.316 µM
[36] = second compound 0.0949 µM, first compound 1 µM
[37] = second compound 0.3 µM, first compound 0.00316 µM
[38] = second compound 0.3 µM, first compound 0.01 µM
[39] = second compound 0.3 µM, first compound 0.0316 µM
[40] = second compound 0.3 µM, first compound 0.1 µM
[41] = second compound 0.3 µM, first compound 0.316 µM
[42] = second compound 0.3 µM, first compound 1 µM
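Note: spheroids exposed to agents for seven days before readout.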

Compound: C=CC(=O)Nc1cc(Nc2nccc(-c3cn(C)c4ccccc34)n2)c(OC)cc1N(C)CCN(C)C + CCn1c(-c2cccnc2C(C)OC)c2c3cc(ccc31)N1CCOC(CC(NC(=O)C(C(C)C)N(C)C(=O)C3(F)CCN(C(=O)C#CC(C)(C)N(C)C)CC3)C(=O)N3CCCC(N3)C(=O)OCC(C)(C)C2)C1
- IC50 [1]: < 3.16 nM
- IC50 [2]: < 3.16 nM
- IC50 [3]: < 3.16 nM
- IC50 [4]: < 3.16 nM
- IC50 [5]: < 3.16 nM
- IC50 [6]: < 3.16 nM
- viability, T/C [7]: 34.5%
- viability, T/C [8]: 31.8%
- viability, T/C [9]: 17%
- viability, T/C [10]: 25.6%
- viability, T/C [11]: 18.3%
- viability, T/C [12]: 9.09%
- viability, T/C [13]: 14.9%
- viability, T/C [14]: 11.9%
- viability, T/C [15]: 10.1%
- viability, T/C [16]: 8.82%
- viability, T/C [17]: 6.15%
- viability, T/C [18]: 5.63%
- viability, T/C [19]: 11.9%
- viability, T/C [20]: 11.1%
- viability, T/C [21]: 11.4%
- viability, T/C [22]: 7.32%
- viability, T/C [23]: 5.35%
- viability, T/C [24]: 5.16%
- viability, T/C [25]: 10.2%
- viability, T/C [26]: 11.1%
- viability, T/C [27]: 9.36%
- viability, T/C [28]: 8.38%
- viability, T/C [29]: 5.05%
- viability, T/C [30]: 4.02%
- viability, T/C [31]: 12.5%
- viability, T/C [32]: 11.2%
- viability, T/C [33]: 10.2%
- viability, T/C [34]: 8.51%
- viability, T/C [35]: 5.53%
- viability, T/C [36]: 5.3%
- viability, T/C [37]: 13.1%
- viability, T/C [38]: 11.4%
- viability, T/C [39]: 11.9%
- viability, T/C [40]: 5.28%
- viability, T/C [41]: 5.37%
- viability, T/C [42]: 4.83%

Compound: CCn1c(-c2cc(N3CCN(C)CC3)cnc2C(C)OC)c2c3cc(ccc31)-c1csc(n1)CC(NC(=O)C1CC1C)C(=O)N1CCCC(N1)C(=O)OCC(C)(C)C2 (centres undefined)
- viability, T/C (compound 0.000949 µM): 50.3% [middle of 8 runs]
- viability, T/C (compound 0.003 µM): 22.4% [middle of 8 runs]
- viability, T/C (compound 0.00949 µM): 10.2% [middle of 8 runs]
- viability, T/C (compound 0.03 µM): 6.3% [middle of 8 runs]
- viability, T/C (compound 0.0949 µM): 3.96% [middle of 8 runs]
- viability, T/C (compound 0.3 µM): 3.36% [middle of 8 runs]

Compound: CC(Nc1ccc2c(c1)OCCn1cc(N3C(=O)OCC3C(F)F)nc1-2)C(N)=O (centres undefined)
- viability, T/C (compound 0.0316 µM): 94.1% [middle of 4 runs]
- viability, T/C (compound 0.1 µM): 86% [middle of 4 runs]
- viability, T/C (compound 0.316 µM): 71.7% [middle of 4 runs]
- viability, T/C (compound 1 µM): 54.5% [middle of 4 runs]
- viability, T/C (compound 3.16 µM): 40.5% [middle of 4 runs]
- viability, T/C (compound 10 µM): 29.4% [middle of 4 runs]
- IC50 (curve of compound): 1.48 µM [middle of 4 runs]

Compound: Nc1ccn(C2OC(CO)C(O)C2(F)F)c(=O)n1 (centres undefined) + CCn1c(-c2cccnc2C(C)OC)c2c3cc(ccc31)N1CCOC(CC(NC(=O)C(C(C)C)N(C)C(=O)C3(F)CCN(C(=O)C#CC(C)(C)N(C)C)CC3)C(=O)N3CCCC(N3)C(=O)OCC(C)(C)C2)C1
- IC50 [1]: < 3.16 nM
- IC50 [2]: < 3.16 nM
- IC50 [3]: < 3.16 nM
- IC50 [4]: < 3.16 nM
- IC50 [5]: < 3.16 nM
- IC50 [6]: < 3.16 nM
- viability, T/C [7]: 37.9%
- viability, T/C [8]: 34.3%
- viability, T/C [9]: 19.9%
- viability, T/C [10]: 27%
- viability, T/C [11]: 19.2%
- viability, T/C [12]: 9.69%
- viability, T/C [13]: 15.3%
- viability, T/C [14]: 11.6%
- viability, T/C [15]: 10.8%
- viability, T/C [16]: 12.3%
- viability, T/C [17]: 12%
- viability, T/C [18]: 9.95%
- viability, T/C [19]: 9.77%
- viability, T/C [20]: 10%
- viability, T/C [21]: 16.4%
- viability, T/C [22]: 12.3%
- viability, T/C [23]: 11.2%
- viability, T/C [24]: 7.94%
- viability, T/C [25]: 13.3%
- viability, T/C [26]: 11%
- viability, T/C [27]: 11.1%
- viability, T/C [28]: 9.53%
- viability, T/C [29]: 9.66%
- viability, T/C [30]: 12.4%
- viability, T/C [31]: 11.5%
- viability, T/C [32]: 10.9%
- viability, T/C [33]: 12.8%
- viability, T/C [34]: 11.3%
- viability, T/C [35]: 7.92%
- viability, T/C [36]: 10.5%
- viability, T/C [37]: 15.4%
- viability, T/C [38]: 12.6%
- viability, T/C [39]: 11.2%
- viability, T/C [40]: 9.08%
- viability, T/C [41]: 8.09%
- viability, T/C [42]: 10.1%

Compound: Nc1ccn(C2OC(CO)C(O)C2(F)F)c(=O)n1 (centres undefined) + CCn1c(-c2cc(N3CCN(C)CC3)cnc2C(C)OC)c2c3cc(ccc31)-c1csc(n1)CC(NC(=O)C1CC1C)C(=O)N1CCCC(N1)C(=O)OCC(C)(C)C2
- IC50 [1]: < 3.16 nM
- IC50 [2]: < 3.16 nM
- IC50 [3]: < 3.16 nM
- IC50 [4]: < 3.16 nM
- IC50 [5]: < 3.16 nM
- IC50 [6]: < 3.16 nM
- viability, T/C [7]: 47%
- viability, T/C [8]: 45.2%
- viability, T/C [9]: 34%
- viability, T/C [10]: 26.3%
- viability, T/C [11]: 21.8%
- viability, T/C [12]: 16.3%
- viability, T/C [13]: 24.2%
- viability, T/C [14]: 19.4%
- viability, T/C [15]: 18.2%
- viability, T/C [16]: 19.3%
- viability, T/C [17]: 15.4%
- viability, T/C [18]: 11.8%
- viability, T/C [19]: 11.9%
- viability, T/C [20]: 8.79%
- viability, T/C [21]: 10.1%
- viability, T/C [22]: 13.8%
- viability, T/C [23]: 9.53%
- viability, T/C [24]: 9.18%
- viability, T/C [25]: 6.18%
- viability, T/C [26]: 6.2%
- viability, T/C [27]: 6.46%
- viability, T/C [28]: 5.05%
- viability, T/C [29]: 3.47%
- viability, T/C [30]: 4.42%
- viability, T/C [31]: 4.43%
- viability, T/C [32]: 4.18%
- viability, T/C [33]: 4.08%
- viability, T/C [34]: 3.58%
- viability, T/C [35]: 2.79%
- viability, T/C [36]: 2.41%
- viability, T/C [37]: 3.51%
- viability, T/C [38]: 3.18%
- viability, T/C [39]: 3.3%
- viability, T/C [40]: 2.52%
- viability, T/C [41]: 3.52%
- viability, T/C [42]: 2.26%
